US12435090B2, “Compounds, pharmaceutical compositions, and methods of preparing compounds and of their use” (Repare Therapeutics Inc., priority 2021, dated 2025)

The compounds below were run against recombinant human Myt1 (Homo sapiens (Human), UniProt Q99640) (assay: Myt1 enzymatic assay (ADP-Glo kinase assay)). Settings: 18 nM enzyme, 10 uM ATP.
Format: biochemical
Experimental: Detection of Myt1 kinase activity utilized a recombinant human Myt1 kinase assay measuring the hydrolysis of ATP using a commercially available ADP-Glo Assay (ADP-Glo™ Kinase Assay from Promega, 10 000 assays, #V9102). […] After this, 5 μL of compounds (diluted in reaction buffer to 0.5% DMSO) was added to the microplate and the plate was spun briefly and incubated at 22° C. for 15 minutes. Ultra-Pure Adenosine Triphosphate (ATP) solution (ADP-Glo kit from Promega) was diluted in reaction buffer and 5 μL was added to the microplate, spun down briefly and incubated for 60 minutes at 30° C. […] After the 60-minute incubation, 15 µL of ADP-Glo reagent was added and the plate was spun briefly and sealed and incubated in the dark for 40 minutes at 22° C. […] Luminescence was read using the Envision (250 ms integration). The IC50 and the % max inhibition were calculated for each inhibitor compound tested.

recombinant human Myt1, sequence (Q99640 whole entry): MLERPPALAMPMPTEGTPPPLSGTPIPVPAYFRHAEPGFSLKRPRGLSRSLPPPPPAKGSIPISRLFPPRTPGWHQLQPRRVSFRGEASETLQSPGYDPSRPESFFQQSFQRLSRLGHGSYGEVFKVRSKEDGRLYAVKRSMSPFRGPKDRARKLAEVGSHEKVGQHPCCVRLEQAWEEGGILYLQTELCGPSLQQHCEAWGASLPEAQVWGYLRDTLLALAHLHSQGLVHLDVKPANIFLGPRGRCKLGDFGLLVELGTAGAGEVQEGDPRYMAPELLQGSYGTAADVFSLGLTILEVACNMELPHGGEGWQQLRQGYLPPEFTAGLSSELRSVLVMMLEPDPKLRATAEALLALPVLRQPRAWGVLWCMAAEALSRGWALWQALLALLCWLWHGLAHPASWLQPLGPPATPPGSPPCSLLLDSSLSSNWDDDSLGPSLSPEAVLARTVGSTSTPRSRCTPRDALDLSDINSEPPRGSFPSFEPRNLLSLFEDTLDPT

SMILES | IC50 [nM]
Cc1ccc(O)c(C)c1-n1c(N)c(C(N)=O)c2nc(N3CCCC3)cnc21 [Compound 85] | < 10
Cc1ccc(O)c(C)c1-n1c(N)c(C(N)=O)c2nc(C3(C(F)(F)F)CC3)cnc21 [Compound 198, 6-amino-5-(3-hydroxy-2,6-dimethyl-phenyl)-2-[1-(trifluoromethyl)cyclopropyl]pyrrolo[2,3-b]pyrazine-7-carboxamide] | < 10
Cc1ccc(O)c(C)c1-n1c(N)c(C(N)=O)c2nc(-c3ccccn3)cnc21 [Compound 34] | < 10
Cc1ccc(O)c(C)c1-n1c(N)c(C(N)=O)c2cccnc21 [Compound 328] | < 10
Cc1ccc(O)c(C)c1-n1c(N)c(C(N)=O)c2nc(N3CCCCC3)cnc21 [Compound 81] | < 10
NC(=O)c1c(N)n(-c2cccc3[nH]ncc23)c2nccnc12 [Compound 277, 6-amino-5-(1H-indazol-4-yl)pyrrolo[2,3-b]pyrazine-7-carboxamide] | 1380
Cc1ccc(O)c(C)c1-n1cc(C(N)=O)c2cc(Cl)ccc21 [Compound 346, 5-chloro-1-(3-hydroxy-2,6-dimethylphenyl)-1H-indole-3-carboxamide] | 234
Cc1ccc(O)c(C)c1-n1c(N)c(C(N)=O)c2nc(C3CCC3)cnc21 [Compound 173, 6-amino-2-cyclobutyl-5-(3-hydroxy-2,6-dimethyl-phenyl) pyrrolo[2,3-b]pyrazine-7-carboxamide] | < 10
